In the supplement of paper PMC12076712:

Columns and labels:
Test in all cases: pIC50, kinobeads binding competition
ULK3 = molecular target: T1, ULK3 (UniProt Q6PHR2)
T1 sequence (whole entry): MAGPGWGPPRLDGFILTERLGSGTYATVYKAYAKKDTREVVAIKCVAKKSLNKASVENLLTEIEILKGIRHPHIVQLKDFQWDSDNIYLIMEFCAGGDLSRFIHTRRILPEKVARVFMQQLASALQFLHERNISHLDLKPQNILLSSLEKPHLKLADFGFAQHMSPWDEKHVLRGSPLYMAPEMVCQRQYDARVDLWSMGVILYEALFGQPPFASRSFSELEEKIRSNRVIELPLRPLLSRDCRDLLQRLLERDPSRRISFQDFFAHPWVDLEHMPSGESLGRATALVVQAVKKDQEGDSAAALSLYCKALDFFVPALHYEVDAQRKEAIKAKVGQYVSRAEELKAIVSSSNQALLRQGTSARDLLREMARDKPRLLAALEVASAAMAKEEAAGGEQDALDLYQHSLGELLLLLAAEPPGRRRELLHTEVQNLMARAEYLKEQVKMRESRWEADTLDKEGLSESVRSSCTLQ
Outline: (§1)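 Either living Jurkat cells (60 min at 37 °C, then lysis) or lysates (60 min at 4 °C) were treated with nine compound concentrations from a top of 30 μM, in 1:4 steps for cells and 1:5 steps for lysates. The lysates were from Jurkat cells or a 1:1:1:1 mix of HEK293, K-562, HepG2 and placenta. Kinobeads-bound proteins were digested and quantified by TMT10 LC-MS/MS. pIC50 was calculated by logistic dose-response fitting (R drc package) of fold changes relative to vehicle, in biological duplicates.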

UniProt P45983 = molecular target: UniProt P45983
Outline: as §1

BMPR1B = BMPR1B (UniProt O00238); conditions: cell material: Lysate mix
Outline: as §1

FGFR3 = FGFR3 (UniProt P22607); conditions: cell material: Lysate mix
Outline: as §1

UniProt P49840 = molecular target: UniProt P49840
Outline: as §1

UniProt Q8IW41 = molecular target: T2, UniProt Q8IW41
T2 sequence (whole entry): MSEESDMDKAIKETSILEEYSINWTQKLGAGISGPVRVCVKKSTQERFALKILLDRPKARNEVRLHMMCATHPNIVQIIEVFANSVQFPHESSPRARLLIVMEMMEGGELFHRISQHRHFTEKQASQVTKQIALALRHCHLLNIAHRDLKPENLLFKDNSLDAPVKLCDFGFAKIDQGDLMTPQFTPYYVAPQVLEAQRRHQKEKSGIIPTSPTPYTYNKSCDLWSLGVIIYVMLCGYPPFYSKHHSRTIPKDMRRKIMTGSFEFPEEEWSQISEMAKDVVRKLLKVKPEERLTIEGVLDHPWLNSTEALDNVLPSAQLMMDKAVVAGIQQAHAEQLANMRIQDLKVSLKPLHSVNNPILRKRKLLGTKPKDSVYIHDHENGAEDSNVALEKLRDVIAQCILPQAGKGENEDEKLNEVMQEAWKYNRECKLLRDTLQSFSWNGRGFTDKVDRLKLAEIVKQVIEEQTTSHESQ
Outline: as §1

MERTK = molecular target: T3, MERTK (UniProt Q12866)
T3 sequence (whole entry): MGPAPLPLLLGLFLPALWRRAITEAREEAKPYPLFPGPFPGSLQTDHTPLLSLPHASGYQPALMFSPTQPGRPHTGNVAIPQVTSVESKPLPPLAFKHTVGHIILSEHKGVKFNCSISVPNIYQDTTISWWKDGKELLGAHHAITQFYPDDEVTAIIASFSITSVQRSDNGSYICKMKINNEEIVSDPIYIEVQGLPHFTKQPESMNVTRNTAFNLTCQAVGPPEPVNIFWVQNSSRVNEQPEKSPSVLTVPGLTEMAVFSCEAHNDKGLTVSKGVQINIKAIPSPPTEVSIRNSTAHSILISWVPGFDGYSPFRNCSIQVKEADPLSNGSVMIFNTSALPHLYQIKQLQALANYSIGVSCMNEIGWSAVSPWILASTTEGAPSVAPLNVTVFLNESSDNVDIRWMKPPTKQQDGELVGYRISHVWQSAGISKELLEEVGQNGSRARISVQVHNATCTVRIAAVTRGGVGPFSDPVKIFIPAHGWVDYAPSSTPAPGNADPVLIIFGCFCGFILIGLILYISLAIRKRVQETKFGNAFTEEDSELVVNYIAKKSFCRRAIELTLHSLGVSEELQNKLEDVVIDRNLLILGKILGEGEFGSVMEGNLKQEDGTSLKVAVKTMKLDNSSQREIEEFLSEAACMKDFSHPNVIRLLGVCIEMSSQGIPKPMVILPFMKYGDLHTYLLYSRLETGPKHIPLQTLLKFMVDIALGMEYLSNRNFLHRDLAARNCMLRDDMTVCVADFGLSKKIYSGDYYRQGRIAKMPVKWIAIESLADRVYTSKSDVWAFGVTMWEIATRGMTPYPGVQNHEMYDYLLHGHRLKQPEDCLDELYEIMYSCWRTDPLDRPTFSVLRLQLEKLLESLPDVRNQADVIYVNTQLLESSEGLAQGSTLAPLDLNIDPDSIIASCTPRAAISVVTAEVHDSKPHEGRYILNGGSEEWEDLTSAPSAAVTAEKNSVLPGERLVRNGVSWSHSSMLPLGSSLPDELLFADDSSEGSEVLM
Outline: as §1

UniProt P07947 = molecular target: UniProt P07947
Outline: as §1

PIP4K2A = molecular target: T4, PIP4K2A (UniProt P48426)
T4 sequence (whole entry): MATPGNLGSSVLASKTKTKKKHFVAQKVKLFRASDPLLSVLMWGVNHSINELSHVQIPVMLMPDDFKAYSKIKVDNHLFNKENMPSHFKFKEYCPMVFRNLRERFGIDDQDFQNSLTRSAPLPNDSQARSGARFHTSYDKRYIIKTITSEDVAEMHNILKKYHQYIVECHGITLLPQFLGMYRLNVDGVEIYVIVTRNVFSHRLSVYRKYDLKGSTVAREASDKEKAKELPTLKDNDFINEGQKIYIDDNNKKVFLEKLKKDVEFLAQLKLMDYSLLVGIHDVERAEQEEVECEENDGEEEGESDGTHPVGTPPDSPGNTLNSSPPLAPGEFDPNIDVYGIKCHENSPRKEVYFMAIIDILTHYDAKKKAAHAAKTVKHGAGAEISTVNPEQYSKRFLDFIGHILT
Outline: as §1

BMPR1B, sequence (O00238 whole entry): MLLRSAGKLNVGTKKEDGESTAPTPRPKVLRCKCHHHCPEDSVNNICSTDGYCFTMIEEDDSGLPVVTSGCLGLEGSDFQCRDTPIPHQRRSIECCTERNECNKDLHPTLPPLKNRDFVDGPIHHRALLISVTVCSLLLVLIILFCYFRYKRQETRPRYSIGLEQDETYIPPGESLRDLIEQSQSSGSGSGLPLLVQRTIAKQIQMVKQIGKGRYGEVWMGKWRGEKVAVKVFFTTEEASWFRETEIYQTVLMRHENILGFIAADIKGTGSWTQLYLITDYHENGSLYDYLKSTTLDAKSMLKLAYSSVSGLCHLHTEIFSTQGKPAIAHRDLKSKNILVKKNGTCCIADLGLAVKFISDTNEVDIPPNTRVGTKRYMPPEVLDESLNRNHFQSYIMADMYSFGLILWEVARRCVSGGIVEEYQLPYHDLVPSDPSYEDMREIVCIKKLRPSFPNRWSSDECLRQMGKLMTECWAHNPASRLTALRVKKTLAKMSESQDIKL
UniProt P07947, sequence (P07947 whole entry, looked up): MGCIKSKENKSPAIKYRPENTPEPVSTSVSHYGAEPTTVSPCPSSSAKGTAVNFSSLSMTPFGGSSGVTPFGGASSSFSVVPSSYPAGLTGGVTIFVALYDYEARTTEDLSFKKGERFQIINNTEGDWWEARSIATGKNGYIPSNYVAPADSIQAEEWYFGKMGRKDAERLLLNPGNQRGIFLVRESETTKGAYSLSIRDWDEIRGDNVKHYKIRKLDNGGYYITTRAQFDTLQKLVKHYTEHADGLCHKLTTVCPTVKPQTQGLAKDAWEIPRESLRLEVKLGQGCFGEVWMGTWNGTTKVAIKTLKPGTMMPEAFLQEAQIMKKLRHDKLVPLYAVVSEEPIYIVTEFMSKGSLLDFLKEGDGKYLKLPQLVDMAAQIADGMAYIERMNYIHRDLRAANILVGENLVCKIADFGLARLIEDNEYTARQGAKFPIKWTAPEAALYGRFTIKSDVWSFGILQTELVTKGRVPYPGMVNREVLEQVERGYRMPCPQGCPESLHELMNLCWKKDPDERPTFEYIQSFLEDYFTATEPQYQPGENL
UniProt P49840, sequence (P49840 whole entry, looked up): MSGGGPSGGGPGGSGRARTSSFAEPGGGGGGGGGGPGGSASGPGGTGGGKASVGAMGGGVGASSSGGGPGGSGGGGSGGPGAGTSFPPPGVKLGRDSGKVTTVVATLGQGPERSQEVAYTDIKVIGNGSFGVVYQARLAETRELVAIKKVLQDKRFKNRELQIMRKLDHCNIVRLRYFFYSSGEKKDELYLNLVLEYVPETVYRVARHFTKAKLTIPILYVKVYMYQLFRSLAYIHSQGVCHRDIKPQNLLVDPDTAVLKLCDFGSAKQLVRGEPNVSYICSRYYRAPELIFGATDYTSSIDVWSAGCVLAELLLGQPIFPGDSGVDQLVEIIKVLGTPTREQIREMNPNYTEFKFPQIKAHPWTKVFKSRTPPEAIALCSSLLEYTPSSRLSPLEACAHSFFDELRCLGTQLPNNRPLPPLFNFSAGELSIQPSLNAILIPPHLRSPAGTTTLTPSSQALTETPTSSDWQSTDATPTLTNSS
FGFR3, sequence (P22607 whole entry, looked up): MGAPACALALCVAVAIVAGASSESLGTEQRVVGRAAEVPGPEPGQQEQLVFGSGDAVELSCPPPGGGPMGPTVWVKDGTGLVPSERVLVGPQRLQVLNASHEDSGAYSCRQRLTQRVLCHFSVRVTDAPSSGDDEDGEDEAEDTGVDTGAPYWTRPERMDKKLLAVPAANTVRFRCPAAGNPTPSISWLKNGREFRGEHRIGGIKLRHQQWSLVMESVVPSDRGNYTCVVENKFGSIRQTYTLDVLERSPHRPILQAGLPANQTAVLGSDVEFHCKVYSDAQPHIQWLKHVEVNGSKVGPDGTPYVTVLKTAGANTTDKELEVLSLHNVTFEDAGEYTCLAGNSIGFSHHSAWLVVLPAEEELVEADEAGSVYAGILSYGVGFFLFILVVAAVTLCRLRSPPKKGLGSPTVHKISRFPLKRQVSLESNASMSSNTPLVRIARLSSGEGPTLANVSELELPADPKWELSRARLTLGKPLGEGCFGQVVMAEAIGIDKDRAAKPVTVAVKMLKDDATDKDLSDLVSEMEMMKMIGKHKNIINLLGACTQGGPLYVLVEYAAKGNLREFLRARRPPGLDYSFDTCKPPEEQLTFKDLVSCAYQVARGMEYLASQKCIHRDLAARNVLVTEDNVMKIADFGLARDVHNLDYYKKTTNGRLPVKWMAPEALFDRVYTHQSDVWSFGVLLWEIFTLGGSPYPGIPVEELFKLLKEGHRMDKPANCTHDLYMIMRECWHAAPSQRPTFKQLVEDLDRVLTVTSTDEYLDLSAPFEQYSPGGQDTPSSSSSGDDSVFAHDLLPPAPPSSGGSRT
UniProt P45983, sequence (P45983 whole entry): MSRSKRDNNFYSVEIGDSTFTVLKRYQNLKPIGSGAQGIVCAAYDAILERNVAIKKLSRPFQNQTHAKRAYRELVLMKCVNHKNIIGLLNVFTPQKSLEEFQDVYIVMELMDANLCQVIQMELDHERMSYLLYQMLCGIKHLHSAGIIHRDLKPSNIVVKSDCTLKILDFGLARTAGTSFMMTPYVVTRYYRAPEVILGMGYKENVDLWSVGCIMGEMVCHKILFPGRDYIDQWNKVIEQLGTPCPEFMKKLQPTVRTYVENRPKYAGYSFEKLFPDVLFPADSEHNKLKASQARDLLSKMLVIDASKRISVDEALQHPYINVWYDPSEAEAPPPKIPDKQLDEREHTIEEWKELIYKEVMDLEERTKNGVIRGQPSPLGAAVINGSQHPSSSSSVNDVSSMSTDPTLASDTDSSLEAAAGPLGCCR

Structure (SMILES) | pIC50 (ULK3; cell material: Lysate mix) | pIC50 (UniProt P45983; cell material: Lysate mix) | pIC50 (BMPR1B) | pIC50 (FGFR3) | pIC50 (UniProt P49840; cell material: Lysate mix) | pIC50 (UniProt Q8IW41; cell material: Lysate mix) | pIC50 (MERTK; cell material: Lysate mix) | pIC50 (UniProt P07947; cell material: Lysate mix) | pIC50 (PIP4K2A; cell material: Lysate mix) | pIC50 (ULK3; cell material: Jurkat cells) | pIC50 (ULK3; cell material: Jurkat lysate) | pIC50 (UniProt P45983; cell material: Jurkat cells) | pIC50 (UniProt P45983; cell material: Jurkat lysate) | pIC50 (UniProt P49840; cell material: Jurkat cells) | pIC50 (UniProt P49840; cell material: Jurkat lysate) | pIC50 (UniProt Q8IW41; cell material: Jurkat lysate) | pIC50 (MERTK; cell material: Jurkat cells) | pIC50 (MERTK; cell material: Jurkat lysate) | pIC50 (UniProt P07947; cell material: Jurkat cells) | pIC50 (UniProt P07947; cell material: Jurkat lysate) | pIC50 (PIP4K2A; cell material: Jurkat cells) | pIC50 (PIP4K2A; cell material: Jurkat lysate) | pIC50 (UniProt Q8IW41; cell material: Jurkat cells)
CCNC(=O)c1cc(Nc2cc(C)[nH]n2)nc(N2CCN(Cc3ccc(S(=O)(=O)F)cc3)CC2)n1 | 5.63 | 4.64 | < 4.52 | < 4.52 | < 4.52 | < 4.52 | < 4.52 | 7.16 | < 4.52 | – | – | – | – | – | – | – | – | – | – | – | – | – | –
CCNC(=O)c1cc(Nc2cc(C3CC3)[nH]n2)nc(N2CCN(Cc3ccc(S(=O)(=O)F)cc3)CC2)n1 | 6.27 | 4.65 | 5.08 | 5.04 | < 4.52 | < 4.52 | 4.94 | 6.44 | < 4.52 | – | – | – | – | – | – | – | – | – | – | – | – | – | –
Cc1cc(Nc2cc(C(=O)NCCNC(=O)OC3CC/C=C/CCC3)nc(N3CCN(Cc4ccc(S(=O)(=O)F)cc4)CC3)n2)n[nH]1 (stereo not given) | < 4.52 | < 4.52 | < 4.52 | < 4.52 | < 4.52 | < 4.52 | < 4.52 | 5.25 | < 4.52 | – | – | – | – | – | – | – | – | – | – | – | – | – | –
C#CCNC(=O)c1cc(Nc2cc(C3CC3)[nH]n2)nc(N2CCN(Cc3ccc(S(=O)(=O)F)cc3)CC2)n1 | 6.39 | 4.72 | 4.78 | < 4.52 | < 4.52 | < 4.52 | 4.84 | 6.62 | < 4.52 | 6.44 | 5.88 | 5.34 | < 4.52 | 5.04 | < 4.52 | < 4.52 | 6.29 | < 4.52 | 6.61 | 5.84 | 4.96 | < 4.52 | –
C#CCNC(=O)c1cc(Nc2cc(C)[nH]n2)nc(N2CCN(Cc3ccc(S(=O)(=O)F)cc3)CC2)n1 | 5.49 | 4.6 | < 4.52 | < 4.52 | < 4.52 | < 4.52 | < 4.52 | 6.3 | < 4.52 | – | – | – | – | – | – | – | – | – | – | – | – | – | –
O=C(NCCNC(=O)c1cc(Nc2cc(C3CC3)[nH]n2)nc(N2CCN(Cc3ccc(S(=O)(=O)F)cc3)CC2)n1)OC1CC/C=C/CCC1 (stereo not given) | – | < 4.52 | < 4.52 | < 4.52 | < 4.52 | < 4.52 | < 4.52 | 5.24 | < 4.52 | 5.86 | < 4.52 | 4.88 | < 4.52 | < 4.52 | < 4.52 | < 4.52 | 6.04 | < 4.52 | 6.18 | 4.62 | < 4.52 | < 4.52 | < 4.52
